From paper PMC5642495, “Characterization of a novel androgen receptor (AR) coregulator RIPK1 and related chemicals that suppress AR-mediated prostate cancer growth via peptide and chemical screening” (Oncotarget, 2017)

How the values were obtained:
[1] = system: LNCaP; test: cell growth assay (MTT), LNCaP; assay type: cell-based; conditions: Homo sapiens, 48 h, Figure 4B, read-out: IC50, prostate cancer cell line growth
Method: LNCaP, CWR22R, and PC-3 cells were grown in RPMI containing 10% FBS. Cells were plated at a density of 5 × 10^4 cells/well in 24-well plates overnight and incubated with difference concentrations of chemicals for 48 h. Cell growth was assessed using the 3-{4,5-dimethylthiazol-2-yl}-2,5-diphenyltetrazolium bromide (MTT) assay. At each time-point, 50 μl of 5 mg/ml MTT was added to each well containing 500 μl medium and incubated for 3 h, followed by the addition of 500 μl isopropyl alcohol to dissolve the reduced formazan product. Absorbance of each well was measured at a wavelength of 590 nm in a DU 640B spectrophotometer (Beckman, Fullerton, CA), according to the manufacturer’s protocol. Values represent mean OD590 ± SD from at least three independent reaction wells.

[2] = system: AR transactivation; test: AR transcriptional reporter assay in PC-3 cells; assay type: cell-based, human; conditions: 10 nM DHT
Method: Figure 1 Associations between RIPK1 and AR (A) Co-IP of Flag-RIPK1 with Flag-AR in the 293T cell line. Extracts of 293T cells overexpressing 3xFlag-RIPK1 and 3xFlag-AR were treated with […]. IP was performed using anti-AR (C19) or anti-RIPK1 antibody or normal rabbit serum (negative control), followed by immunoblotting (IB) with antibodies against AR or RIPK1. (B) RIPK1 interacts with full-length AR and the N- and C-terminal regions of AR in GST pull-down assays. Mutation of the FxxFY motif to AxxAA in RIPK1 reduced interactions with AR. […] (C) Transfection of PC-3 prostate cancer cells with AR and RIPK1. PC-3 cells in 24-well plates were co-transfected with 300 ng MMTV-LUC reporter plasmid and 0.5 ng SV40-Renilla luciferase plasmid, together with 100 ng pCMV-Flag-AR and 100, 300 or 500 ng p3xFLAG- RIPK1. The total plasmid DNA content was made up to 1 µg with pCMV. After 16 h, ethanol or 10 nM DHT was added and cells incubated for an additional 16 h. DHT was used as the AR ligand while ARA70N served as the positive control. Relative LUC activity was determined using the dual luciferase system. (D) RIPK1 functional domain mapping in relation to AR transactivation. PC-3 cells were transfected with pCMV-Flag-AR and RIPK1 expression plasmid, P3xFlag-RIPK1 full-length, P3xFlag-RIPK1-(240-671) or P3xflag-RIPK1-(1-558) plasmid, and cultured overnight. Ethanol or 10 nM DHT was added and cells incubated for an additional 16 h. Relative LUC activity was determined using the dual luciferase system. (E) RIPK1 is expressed in benign prostatic hyperplasia tissue, displaying strong positivity (3+, > 90%) in the gland area but weak (1+, 50%) staining in the background. (F) Human prostate cancer tissues were immunostained for RIPK1. “T” indicates the tumor area (right side) and “Non-T” the non-tumor area (left side). RIPK1 expression was weak (1+, 80%) in the cancer area but remained strong (3+, 70%) in the peri-cancer area. The figures are representative of three benign prostatic gland hyperplasia and cancer tissues.
The PC-3 prostate cancer cell line was used for experiments. […]

[3] = molecular target: T1, AR protein (Homo sapiens, UniProt P10275); test: AR protein degradation; assay type: cell-based; conditions: Figure 6D
T1 sequence (P10275 1-920): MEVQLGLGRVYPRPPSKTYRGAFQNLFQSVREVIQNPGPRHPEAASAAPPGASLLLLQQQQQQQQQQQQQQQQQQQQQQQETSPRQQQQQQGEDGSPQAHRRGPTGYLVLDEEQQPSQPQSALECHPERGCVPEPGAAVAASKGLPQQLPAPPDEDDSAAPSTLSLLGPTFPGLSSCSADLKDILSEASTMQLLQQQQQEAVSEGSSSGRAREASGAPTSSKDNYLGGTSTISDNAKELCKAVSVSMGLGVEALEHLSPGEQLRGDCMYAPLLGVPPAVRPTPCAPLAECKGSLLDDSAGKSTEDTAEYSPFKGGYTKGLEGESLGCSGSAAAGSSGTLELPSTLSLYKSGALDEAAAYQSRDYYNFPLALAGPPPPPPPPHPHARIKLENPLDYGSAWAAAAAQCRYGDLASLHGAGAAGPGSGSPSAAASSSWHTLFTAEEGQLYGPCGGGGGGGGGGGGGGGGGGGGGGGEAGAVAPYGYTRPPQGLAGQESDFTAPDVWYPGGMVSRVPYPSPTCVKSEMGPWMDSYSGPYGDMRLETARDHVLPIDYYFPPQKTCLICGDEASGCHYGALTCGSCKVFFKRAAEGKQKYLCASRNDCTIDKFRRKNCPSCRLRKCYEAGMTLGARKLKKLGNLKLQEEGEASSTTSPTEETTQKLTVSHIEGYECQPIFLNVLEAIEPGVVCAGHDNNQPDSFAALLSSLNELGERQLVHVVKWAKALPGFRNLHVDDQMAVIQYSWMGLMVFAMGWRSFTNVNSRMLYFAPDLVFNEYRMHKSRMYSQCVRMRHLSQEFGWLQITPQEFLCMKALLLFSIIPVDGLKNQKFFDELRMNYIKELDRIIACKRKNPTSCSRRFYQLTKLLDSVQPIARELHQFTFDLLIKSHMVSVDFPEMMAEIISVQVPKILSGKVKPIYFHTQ
Method: Figure 6 Mechanism underlying suppression of AR-related functions by oxadiazole derivatives (A–C) Transcriptional activity in reporter assays. PC-3 cells in 24-well plates were transfected as indicated below. After incubation for 16 h, cells were treated with ethanol, 10 nM DHT, or 0.01–10 μM HWC-489 or LHJ-647 for an additional 16 h. Luciferase activity in cell lysates was determined and normalized to protein concentrations. Relative luciferase activity was calculated using the luciferase reporter assay system. (A) PC-3 cells were co-transfected with 350 ng pCDNA3-flag-hAR-N (residues 1–506), 350 ng pCDNA3-hAR-C (residues 556–919), and 300 ng MMTV-Luc plasmids. (B) PC-3 cells were co-transfected with 350 ng GAL4-DBD-3-18, 350 ng pCMX-VP16-AR, and 300 ng pG5-Luc plasmids. (C) PC-3 cells were transfected with 350 ng GAL4-DBD-ARA54C, 350 ng VP16-AR, and 300 ng pG5-Luc plasmids. (D) LHJ-647 promotes AR protein degradation.

SMILES | IC50 [1] [µM] | effect on AR transactivation in combination with enzalutamide ([2]; 1 µM enzalutamide plus 0.1 µM HWC-489 (lane 14 vs. 4)) | effect on AR transactivation in combination with enzalutamide ([2]; 1 µM enzalutamide plus 1 µM LHJ-647 (lane 9 vs. 4)) | AR protein degradation [3]
Cc1ccc(-c2nnc(Nc3ccccc3)o2)cc1 [HWC-489] | 1 to 10 | additive effect |  | 
COc1cccc(Nc2nnc(-c3ccc(N(C)C)cc3)o2)c1 [LHJ-647] | 1 to 10 |  | additive effect | promoted AR protein degradation
